Data: patent US8507540B2, “Oxazolidinone derivatives containing new bicyclic group, having antibacterial activity, and method for treating pathogenic bacterial infections using the same” (Korean Institute of Science and Technology, priority 2011, dated 2013)
pIC50: −log10 of the molar value. Values after ≈ are worked out from the molar mass of the structure shown.

Legend:
[1] = tested on: Staphylococcus pneumoniae, penicillin susceptible; test: In vitro antibacterial activity test, Agar Dilution MIC; conditions: 18 h
[2] = tested on: Staphylococcus aureus, methicillin susceptible; test: as above; conditions: 18 h
[3] = tested on: Enterococcus faecium, vancomycin resistant; test: as above; conditions: 18 h
[4] = tested on: Enterococcus faecalis, vancomycin resistant; test: as above; conditions: 18 h
[5] = tested on: Staphylococcus pneumoniae, penicillin non-susceptible; test: as above; conditions: 18 h
[6] = tested on: Enterococcus faecium, vancomycin susceptible; test: as above; conditions: 18 h
[7] = tested on: Haemophilus influenzae, beta-lactamase-positive; test: as above; conditions: 18 h
[8] = tested on: Staphylococcus pyogenes; test: as above; conditions: Staphylococcus aureus, 18 h
[9] = tested on: Coagulase negative staphylococci, methicillin resistant; test: as above; conditions: 18 h
[10] = tested on: Staphylococcus agalactiae; test: as above; conditions: 18 h
[11] = tested on: Mycobacterium tuberculosis (Mtb) H37Rv; test: In vitro antituberculous activity test, Microplate Alamar Blue Assay; format: cell-based; conditions: versus linezolid
[12] = tested on: Enterococcus faecalis, vancomycin susceptible; test: In vitro antibacterial activity test, Agar Dilution MIC; conditions: 18 h
[13] = tested on: Staphylococcus aureus, methicillin resistant; test: as above; conditions: 18 h
[14] = tested on: Coagulase negative staphylococci, methicillin susceptible; test: as above; conditions: 18 h
[15] = tested on: MRSA and other gram positive bacteria; Staphylococcus sp., Enterococcus sp. and Haemophilus influenza; test: In vitro antibacterial activity test, overall statements on the strain panel; conditions: various strains of Table 1
[16] = molecular target: CYP2C9 (Homo sapiens, UniProt P11712); test: CYP450 remaining test (Vivid CYP450 Screening Kits)
[17] = molecular target: hERG (Homo sapiens, UniProt Q12809); test: hERG assay for cardiac toxicity, automated patch-clamp; format: cell-based
[18] = Human hepatic microsomal stability test; format: in vitro ADME; conditions: human hepatic microsomes
[19] = molecular target: T1, CYP1A2 (Homo sapiens, UniProt P05177); test: CYP450 remaining test (Vivid CYP450 Screening Kits); format: in vitro ADME; conditions: isozyme 1A2
T1 construct: purchased Invitrogen

[20] = molecular target: CYP3A4 (Homo sapiens, UniProt P08684); test: as above
Description: (§1) CYP450 remaining test was conducted using Vivid® CYP450 Screening Kits Protocol (Invitrogen), and hERG assay for cardiac toxicity test was conducted using an automated patch-clamp device, NPC-16 Patchliner (Nanion Technologies, Munchen, Germany) according to the method of C. Farre, et al. (Combinatorial Chemistry & High Throughput Screening, 2009, 12, 24-37). And, human hepatic microsomal stability test was conducted according to the method of W. A. Korfmacher, et al. (Rapid Commun. Mass Spectrom. 13, 901-907 (1999)).

[21] = molecular target: CYP2D6 (Homo sapiens, UniProt P10635); test: as above
Description: as §1

[22] = tested on: CYP1A2, CYP2D6, CYP2C9, CYP3A4; test: in vitro; format: in vitro ADME; conditions: human
[23] = automated patch-clamp, NPC-16 Patchliner

Sequence of hERG (Q12809 whole entry): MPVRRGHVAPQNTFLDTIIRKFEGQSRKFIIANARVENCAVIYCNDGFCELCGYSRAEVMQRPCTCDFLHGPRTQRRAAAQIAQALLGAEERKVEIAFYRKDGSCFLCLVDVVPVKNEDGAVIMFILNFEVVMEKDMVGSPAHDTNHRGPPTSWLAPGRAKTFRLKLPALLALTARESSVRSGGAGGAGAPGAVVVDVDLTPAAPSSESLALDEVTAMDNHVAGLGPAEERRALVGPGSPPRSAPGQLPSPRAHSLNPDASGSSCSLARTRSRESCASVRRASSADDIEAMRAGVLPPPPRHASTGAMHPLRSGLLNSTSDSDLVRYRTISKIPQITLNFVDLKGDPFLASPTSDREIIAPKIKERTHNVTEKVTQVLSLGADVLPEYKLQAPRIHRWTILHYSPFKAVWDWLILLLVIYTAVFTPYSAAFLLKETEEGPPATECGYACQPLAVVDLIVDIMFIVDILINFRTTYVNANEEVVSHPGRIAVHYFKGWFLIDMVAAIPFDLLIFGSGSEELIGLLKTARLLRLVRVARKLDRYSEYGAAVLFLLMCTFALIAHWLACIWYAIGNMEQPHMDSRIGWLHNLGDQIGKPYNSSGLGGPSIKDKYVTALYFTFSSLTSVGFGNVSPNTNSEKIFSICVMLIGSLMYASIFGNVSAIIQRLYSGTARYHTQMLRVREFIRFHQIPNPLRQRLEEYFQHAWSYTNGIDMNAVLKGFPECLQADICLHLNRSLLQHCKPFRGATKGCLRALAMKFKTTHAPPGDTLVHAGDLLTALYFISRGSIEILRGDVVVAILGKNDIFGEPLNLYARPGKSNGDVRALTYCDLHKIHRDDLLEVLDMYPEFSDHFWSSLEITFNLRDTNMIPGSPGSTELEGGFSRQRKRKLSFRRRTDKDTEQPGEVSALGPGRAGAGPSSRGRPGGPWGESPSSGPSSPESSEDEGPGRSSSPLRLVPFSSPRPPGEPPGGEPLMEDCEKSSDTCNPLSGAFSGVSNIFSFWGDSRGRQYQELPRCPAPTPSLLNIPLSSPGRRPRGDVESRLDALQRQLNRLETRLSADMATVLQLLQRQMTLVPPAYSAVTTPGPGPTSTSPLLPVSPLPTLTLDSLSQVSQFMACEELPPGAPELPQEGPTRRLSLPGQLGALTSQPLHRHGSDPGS
Sequence of CYP2D6 (P10635 whole entry): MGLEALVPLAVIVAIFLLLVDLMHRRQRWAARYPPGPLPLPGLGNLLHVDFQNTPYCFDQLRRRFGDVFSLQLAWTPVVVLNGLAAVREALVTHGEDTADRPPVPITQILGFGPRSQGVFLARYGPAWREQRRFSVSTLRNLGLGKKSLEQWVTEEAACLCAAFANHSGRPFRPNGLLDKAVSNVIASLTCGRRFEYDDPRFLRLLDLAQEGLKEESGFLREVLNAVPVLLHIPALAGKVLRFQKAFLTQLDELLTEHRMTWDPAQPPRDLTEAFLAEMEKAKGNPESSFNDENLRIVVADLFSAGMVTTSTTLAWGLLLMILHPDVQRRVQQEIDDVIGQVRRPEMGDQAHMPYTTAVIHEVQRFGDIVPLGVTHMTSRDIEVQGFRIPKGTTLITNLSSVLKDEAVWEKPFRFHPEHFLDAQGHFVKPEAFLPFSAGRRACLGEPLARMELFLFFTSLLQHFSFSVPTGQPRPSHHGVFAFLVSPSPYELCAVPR
Sequence of CYP2C9 (P11712 whole entry): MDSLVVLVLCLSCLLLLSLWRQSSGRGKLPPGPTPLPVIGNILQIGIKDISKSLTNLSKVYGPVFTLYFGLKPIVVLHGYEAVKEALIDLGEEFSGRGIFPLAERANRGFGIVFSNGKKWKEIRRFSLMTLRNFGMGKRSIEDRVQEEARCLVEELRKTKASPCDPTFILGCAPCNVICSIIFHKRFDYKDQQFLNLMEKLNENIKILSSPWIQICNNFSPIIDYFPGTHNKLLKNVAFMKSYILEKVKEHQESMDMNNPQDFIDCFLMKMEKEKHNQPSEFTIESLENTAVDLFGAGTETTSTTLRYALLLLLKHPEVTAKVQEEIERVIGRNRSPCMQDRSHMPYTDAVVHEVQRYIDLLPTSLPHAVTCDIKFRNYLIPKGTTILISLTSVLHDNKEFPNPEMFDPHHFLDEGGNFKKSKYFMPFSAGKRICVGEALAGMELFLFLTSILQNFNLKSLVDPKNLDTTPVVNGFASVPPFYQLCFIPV
Sequence of CYP3A4 (P08684 whole entry): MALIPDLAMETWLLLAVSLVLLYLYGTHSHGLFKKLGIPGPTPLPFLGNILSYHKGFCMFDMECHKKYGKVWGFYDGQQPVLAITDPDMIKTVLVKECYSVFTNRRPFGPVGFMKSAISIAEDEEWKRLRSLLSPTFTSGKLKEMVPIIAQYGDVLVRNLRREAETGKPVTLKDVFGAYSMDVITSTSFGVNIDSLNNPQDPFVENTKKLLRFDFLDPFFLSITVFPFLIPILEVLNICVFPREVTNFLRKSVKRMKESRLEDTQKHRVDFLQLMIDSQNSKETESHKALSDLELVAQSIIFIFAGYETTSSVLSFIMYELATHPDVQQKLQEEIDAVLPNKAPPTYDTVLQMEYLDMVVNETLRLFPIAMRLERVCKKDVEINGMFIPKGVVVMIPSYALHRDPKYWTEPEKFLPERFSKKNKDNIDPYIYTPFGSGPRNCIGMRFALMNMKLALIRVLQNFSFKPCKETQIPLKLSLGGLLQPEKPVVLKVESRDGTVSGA
T1 sequence (P05177 whole entry): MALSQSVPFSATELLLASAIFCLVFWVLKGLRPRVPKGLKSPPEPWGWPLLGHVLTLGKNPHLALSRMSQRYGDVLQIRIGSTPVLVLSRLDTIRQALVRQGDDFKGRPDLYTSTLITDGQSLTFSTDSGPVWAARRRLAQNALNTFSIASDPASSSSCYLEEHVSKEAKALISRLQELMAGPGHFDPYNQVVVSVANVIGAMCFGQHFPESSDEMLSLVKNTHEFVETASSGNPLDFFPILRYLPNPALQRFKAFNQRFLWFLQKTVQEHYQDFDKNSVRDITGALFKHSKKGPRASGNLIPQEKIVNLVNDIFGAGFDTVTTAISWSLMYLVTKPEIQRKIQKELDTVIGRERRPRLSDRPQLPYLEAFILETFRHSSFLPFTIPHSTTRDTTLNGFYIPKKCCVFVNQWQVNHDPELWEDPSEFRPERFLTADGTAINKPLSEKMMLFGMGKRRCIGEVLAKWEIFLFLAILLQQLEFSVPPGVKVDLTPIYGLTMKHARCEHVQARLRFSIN

| SMILES | MIC [1] [µg/mL] | MIC [2] [µg/mL] | MIC [3] [µg/mL] | MIC [4] [µg/mL] | MIC [5] [µg/mL] | MIC [6] [µg/mL] | MIC [7] [µg/mL] | MIC [8] [µg/mL] | MIC [9] [µg/mL] | MIC [10] [µg/mL] | antituberculous activity compared to linezolid [11] | MIC [12] [µg/mL] | MIC [13] [µg/mL] | MIC [14] [µg/mL] | antibacterial activity against the strain panel [15] | other results |
| --- | --- | --- | --- | --- | --- | --- | --- | --- | --- | --- | --- | --- | --- | --- | --- | --- |
| CC(=O)NC[C@H]1CN(c2ccc(N3CC4CC(=CC#N)CC4C3)c(F)c2)C(=O)O1 (stereo partly drawn) [Example 1, N-[[(5S)-3-[4-(5-cyanomethylene-hexahydro-cyclopenta[c]pyrrol-2-yl)-3-fluorophenyl]-2-oxo-5-oxazolidinyl]methyl]acetamide] | 0.7 (≈ 1.76 µM) | 3.1 (≈ 7.78 µM) | 1.5 (≈ 3.76 µM) | 1.5 (≈ 3.76 µM) | 0.7 (≈ 1.76 µM) | 0.7 (≈ 1.76 µM) | 0.7 (≈ 1.76 µM) | 0.7 (≈ 1.76 µM) | 3.1 (≈ 7.78 µM) | 1.5 (≈ 3.76 µM) | antibacterial effects equivalent to linezolid | 1.5 (≈ 3.76 µM) | 3.1 (≈ 7.78 µM) | 3.1 (≈ 7.78 µM) |  |  |
| CC(=O)NC[C@H]1CN(c2ccc(N3CC4C=C(CC#N)CC4C3)c(F)c2)C(=O)O1 (stereo partly drawn) [Example 2, N-[[(5S)-3-[4-(5-cyanomethyl-3,3a,4,6a-tetrahydro-1H-cyclopenta[c]pyrrol-2-yl)-3-fluorophenyl]-2-oxo-5-oxazolidinyl]methyl]acetamide] | 0.7 (≈ 1.76 µM) | 3.1 (≈ 7.78 µM) | 1.5 (≈ 3.76 µM) | 3.1 (≈ 7.78 µM) | 0.7 (≈ 1.76 µM) | 1.5 (≈ 3.76 µM) | 1.5 (≈ 3.76 µM) | 0.7 (≈ 1.76 µM) | 3.1 (≈ 7.78 µM) | 1.5 (≈ 3.76 µM) | antibacterial effects equivalent to linezolid | 1.5 (≈ 3.76 µM) | 1.5 (≈ 3.76 µM) | 3.1 (≈ 7.78 µM) | high antibacterial activities |  |
| CC(=O)NC[C@H]1CN(c2ccc(N3CC4C=C(C#N)CC4C3)c(F)c2)C(=O)O1 (stereo partly drawn) [Example 3, N-[[(5S)-3-[4-(5-cyano-3,3a,4,6a-tetrahydro-1H-cyclopenta[c]pyrrol-2-yl)-3-fluorophenyl]-2-oxo-5-oxazolidinyl]methyl]acetamide] | 0.7 (≈ 1.82 µM) | 3.1 (≈ 8.06 µM) | 1.5 (≈ 3.9 µM) | 3.1 (≈ 8.06 µM) | 0.3 (≈ 0.78 µM) | 1.5 (≈ 3.9 µM) | 0.3 (≈ 0.78 µM) | 0.7 (≈ 1.82 µM) | 3.1 (≈ 8.06 µM) | 1.5 (≈ 3.9 µM) | more excellent antibacterial activities than linezolid | 3.1 (≈ 8.06 µM) | 1.5 (≈ 3.9 µM) | 3.1 (≈ 8.06 µM) | high antibacterial activities |  |
| O=C1CC2CN(c3ccc(N4C[C@H](Cn5ccnn5)OC4=O)cc3F)CC2C1 (stereo partly drawn) [Example 4, (5R)-3-[3-fluoro-4-(5-oxo-hexahydro-cyclopenta[c]pyrrol-2-yl)phenyl]-5-(1,2,3-triazol-1-ylmethyl)oxazolidin-2-one] | 0.7 (≈ 1.82 µM) | 3.1 (≈ 8.04 µM) | 3.1 (≈ 8.04 µM) | 1.5 (≈ 3.89 µM) | 0.3 (≈ 0.778 µM) | 1.5 (≈ 3.89 µM) | 1.5 (≈ 3.89 µM) | 0.3 (≈ 0.778 µM) | 3.1 (≈ 8.04 µM) | 0.7 (≈ 1.82 µM) | more excellent antibacterial activities than linezolid | 1.5 (≈ 3.89 µM) | 3.1 (≈ 8.04 µM) | 3.1 (≈ 8.04 µM) | high antibacterial activities | activity [16]: 73.7%; pIC50 [17, 23]: 4.09; hERG Max, [17, 23]: 38%; hERG bonding ([17]; in vitro hERG assay, cardiac toxicity): does not have hERG bonding; Human Hepatic Microsomal stability Remaining activity after 30 minutes (%) [18]: 83.8%; activity [19]: 94.9%; activity [20]: 106%; activity [21]: 108%; activity [22]: 73.6 to 106% |
| O=C1O[C@@H](Cn2ccnn2)CN1c1ccc(N2CC3CC(=NO)CC3C2)c(F)c1 (stereo partly drawn) [Example 5, (5R)-3-[3-fluoro-4-(5-hydroxyimino-hexahydro-cyclopenta[c]pyrrol-2-yl)phenyl]-5-(1,2,3-triazol-1-ylmethyl)oxazolidin-2-one] | 1.5 (≈ 3.75 µM) | 6.2 (≈ 15.5 µM) | 6.2 (≈ 15.5 µM) | 6.2 (≈ 15.5 µM) | 0.7 (≈ 1.75 µM) | 3.1 (≈ 7.74 µM) | 3.1 (≈ 7.74 µM) | 0.7 (≈ 1.75 µM) | 6.2 (≈ 15.5 µM) | 1.5 (≈ 3.75 µM) |  | 6.2 (≈ 15.5 µM) | 6.2 (≈ 15.5 µM) | 6.2 (≈ 15.5 µM) |  |  |
| CON=C1CC2CN(c3ccc(N4C[C@H](Cn5ccnn5)OC4=O)cc3F)CC2C1 (stereo partly drawn) [Example 6, (5R)-3-[3-fluoro-4-(5-methoxyimino-hexahydro-cyclopenta[c]pyrrol-2-yl)phenyl]-5-(1,2,3-triazol-1-ylmethyl)oxazolidin-2-one] | 0.3 (≈ 0.724 µM) | 6.2 (≈ 15 µM) | 1.5 (≈ 3.62 µM) | 3.1 (≈ 7.48 µM) | 0.1 (≈ 0.241 µM) | 1.5 (≈ 3.62 µM) | 0.3 (≈ 0.724 µM) | 0.1 (≈ 0.241 µM) | 6.2 (≈ 15 µM) | 0.3 (≈ 0.724 µM) | antibacterial effects equivalent to linezolid | 1.5 (≈ 3.62 µM) | 6.2 (≈ 15 µM) | 6.2 (≈ 15 µM) |  |  |
| N#CC=C1CC2CN(c3ccc(N4C[C@H](Cn5ccnn5)OC4=O)cc3F)CC2C1 (stereo partly drawn) [Example 7, (5R)-3-[4-(5-cyanomethylene-hexahydro-cyclopenta[c]pyrrol-2-yl)-3-fluorophenyl]-5-(1,2,3-triazol-1-ylmethyl)oxazolidin-2-one] | 0.7 (≈ 1.71 µM) | 1.5 (≈ 3.67 µM) | 1.5 (≈ 3.67 µM) | 3.1 (≈ 7.59 µM) | 0.3 (≈ 0.735 µM) | 1.5 (≈ 3.67 µM) | 0.3 (≈ 0.735 µM) | 0.3 (≈ 0.735 µM) | 1.5 (≈ 3.67 µM) | 0.7 (≈ 1.71 µM) | antibacterial effects equivalent to linezolid | 1.5 (≈ 3.67 µM) | 0.7 (≈ 1.71 µM) | 1.5 (≈ 3.67 µM) | high antibacterial activities |  |
| N#CCC1=CC2CN(c3ccc(N4C[C@H](Cn5ccnn5)OC4=O)cc3F)CC2C1 (stereo partly drawn) [Example 8, (5R)-3-[4-(5-cyanomethyl-3,3a,4,6a-tetrahydro-1H-cyclopenta[c]pyrrol-2-yl)-3-fluorophenyl]-5-(1,2,3-triazol-1-ylmethyl)oxazolidin-2-one] | 3.1 (≈ 7.59 µM) | 6.2 (≈ 15.2 µM) | 6.2 (≈ 15.2 µM) | 6.2 (≈ 15.2 µM) | 1.5 (≈ 3.67 µM) | 6.2 (≈ 15.2 µM) | 1.5 (≈ 3.67 µM) | 1.5 (≈ 3.67 µM) | 6.2 (≈ 15.2 µM) | 3.1 (≈ 7.59 µM) |  | 6.2 (≈ 15.2 µM) | 1.5 (≈ 3.67 µM) | 6.2 (≈ 15.2 µM) |  |  |
| N#CC1=CC2CN(c3ccc(N4C[C@H](Cn5ccnn5)OC4=O)cc3F)CC2C1 (stereo partly drawn) [Example 9, (5R)-3-[4-(5-cyano-3,3a,4,6a-tetrahydro-1H-cyclopenta[c]pyrrol-2-yl)-3-fluorophenyl]-5-(1,2,3-triazol-1-ylmethyl)oxazolidin-2-one] | 1.5 (≈ 3.8 µM) | 3.1 (≈ 7.86 µM) | 3.1 (≈ 7.86 µM) | 3.1 (≈ 7.86 µM) | 0.7 (≈ 1.77 µM) | 3.1 (≈ 7.86 µM) | 0.7 (≈ 1.77 µM) | 0.7 (≈ 1.77 µM) | 3.1 (≈ 7.86 µM) | 1.5 (≈ 3.8 µM) |  | 3.1 (≈ 7.86 µM) | 1.5 (≈ 3.8 µM) | 3.1 (≈ 7.86 µM) |  |  |
| CC(=O)NC[C@H]1CN(c2ccc(N3CCOCC3)c(F)c2)C(=O)O1 [LZD, linezolid, reference compound] | 0.7 (≈ 2.07 µM) | 3.1 (≈ 9.19 µM) | 1.5 (≈ 4.45 µM) | 1.5 (≈ 4.45 µM) | 0.7 (≈ 2.07 µM) | 1.5 (≈ 4.45 µM) | 0.7 (≈ 2.07 µM) | 0.7 (≈ 2.07 µM) | 3.1 (≈ 9.19 µM) | 1.5 (≈ 4.45 µM) |  | 1.5 (≈ 4.45 µM) | 3.1 (≈ 9.19 µM) | 3.1 (≈ 9.19 µM) |  |  |
| CC(=O)N1CCN(c2ccc(OCC3COC(Cn4ccnc4)(c4ccc(Cl)cc4Cl)O3)cc2)CC1 (centres unmarked) [ketoconazole, reference compound] |  |  |  |  |  |  |  |  |  |  |  |  |  |  |  | activity [20]: 2.3% |
| C=C[C@H]1C[N@@]2CC[C@H]1C[C@@H]2[C@@H](O)c1ccnc2ccc(OC)cc12 [quinidine, reference compound] |  |  |  |  |  |  |  |  |  |  |  |  |  |  |  | activity [21]: 11.1% |
| Nc1ccc(S(=O)(=O)Nc2ccnn2-c2ccccc2)cc1 [sulfaphenazol, reference compound] |  |  |  |  |  |  |  |  |  |  |  |  |  |  |  | activity [16]: -3.5% |
